Experimental data taken from patent US8754115B2, “Fungicidal pyrazoles” (E I du Pont de Nemours and Company, priority 2010, dated 2014).
Marks after values point to notes of the source that are not given here.

Columns and labels:
Type in all cases: in vivo
Botrytis cinerea = assay: Test A: preventive spray on tomato seedlings, visual disease rating (tomato Botrytis)
Excerpt: (§1) General protocol for preparing test suspensions for Tests A-F: the test compounds were first dissolved in acetone in an amount equal to 3% of the final volume and then suspended at the desired concentration (in ppm) in acetone and purified water (50/50 mix by volume) containing 250 ppm of the surfactant Trem® 014 (polyhydric alcohol esters). The resulting test suspensions were then used in Tests A-F. Spraying a 200 ppm test suspension to the point of run-off on the test plants was the equivalent of a rate of 800 g/ha. Unless otherwise indicated, the rating values indicate a 200 ppm test suspension was used. (An asterisk “*” next to the rating value indicates a 40 ppm test suspension was used.)
The test suspension was sprayed to the point of run-off on tomato seedlings. The following day the seedlings were inoculated with a spore suspension of Botrytis cinerea (the causal agent of tomato Botrytis) and incubated in saturated atmosphere at 20° C. for 48 h, and then moved to a growth chamber at 24° C. for 3 days, after which time visual disease ratings were made.
(§2) Results for Tests A-F are given in Table A. In the Table, a rating of 100 indicates 100% disease control and a rating of 0 indicates no disease control (relative to the controls). A dash (-) indicates no test results. An asterisk “*” next to the rating value indicates a 40 ppm test suspension was used.

[1] = tested on: Puccinia recondite f. sp. tritici; assay: Test E2: preventive spray on wheat seedlings, visual disease rating (wheat leaf rust)
Excerpt: as §1
The test suspension was sprayed to the point of run-off on wheat seedlings. The following day the seedlings were inoculated with a spore suspension of Puccinia recondite f. sp. tritici (the causal agent of wheat leaf rust) and incubated in a saturated atmosphere at 20° C. for 24 h, and then moved to a growth chamber at 20° C. for 7 days, after which time visual disease ratings were made.
as §2

[2] = tested on: Blumeria graminis f. sp. tritici; assay: Test F: preventive spray on wheat seedlings, visual disease rating (wheat powdery mildew)
Excerpt: as §1
The test suspension was sprayed to the point of run-off on wheat seedlings. The following day the seedlings were inoculated with a spore dust of Blumeria graminis f. sp. tritici, (also known as Erysiphe graminis f. sp. tritici, the causal agent of wheat powdery mildew) and incubated in a growth chamber at 20° C. for 8 days, after which time visual disease ratings were made.
as §2

Septoria nodorum = assay: Test C: preventive spray on wheat seedlings, visual disease rating (Septoria glume blotch)
Excerpt: as §1
(§3) The test suspension was sprayed to the point of run-off on wheat seedlings. The following day the seedlings were inoculated with a spore suspension of Septoria nodorum (the causal agent of Septoria glume blotch) and incubated in a saturated atmosphere at 24° C. for 48 h, and then moved to a growth chamber at 20° C. for 6 days, after which time visual disease ratings were made.
as §2

Septoria tritici = assay: Test D: preventive spray on wheat seedlings, visual disease rating (wheat leaf blotch)
Excerpt: as §1
as §3, with “tritici” for “nodorum”, “wheat leaf” for “Septoria glume”, “in” for “in a”, “19” for “6”
as §2

Alternaria solani = assay: Test B: preventive spray on tomato seedlings, visual disease rating (tomato early blight)
Excerpt: as §1
The test suspension was sprayed to the point of run-off on tomato seedlings. The following day the seedlings were inoculated with a spore suspension of Alternaria solani (the causal agent of tomato early blight) and incubated in a saturated atmosphere at 27° C. for 48 h, and then moved to a growth chamber at 20° C. for 5 days, after which time visual disease ratings were made.
as §2

[3] = tested on: Puccinia recondite f. sp. tritici; assay: Test E1: curative spray on wheat seedlings after inoculation, visual disease rating (wheat leaf rust)
Excerpt: as §1
Wheat seedlings were inoculated with a spore suspension of Puccinia recondite f. sp. tritici (the causal agent of wheat leaf rust) and incubated in a saturated atmosphere at 20° C. for 24 h, and then moved to a growth chamber at 20° C. for 2 days. After 2 days, the test suspension was sprayed to the point of run-off on the wheat seedlings, and then the seedlings were moved back to the growth chamber at 20° C. for 6 days. Upon removal, visual disease ratings were made.
as §2

[4] = asterisk: 40 ppm test suspension
[5] = no asterisk: standard test suspension, not 40 ppm
[6] = no asterisk: standard test suspension, not 40 ppm, 100 = 100% disease control, 0 = none

Row | SMILES | Test A rating (% disease control) (Botrytis cinerea; [4]) | Test E2 rating (% disease control) [1, 4] | Test F rating (% disease control) [2, 4] | Test C rating (% disease control) (Septoria nodorum; [4]) | Test D rating (% disease control) (Septoria tritici; [4]) | Test E2 rating (% disease control) [1, 5] [%] | Test F rating (% disease control) [2, 5] [%] | Test B rating (% disease control) (Alternaria solani; [5]) [%] | Test E1 rating (% disease control) [3, 5] [%] | Test C rating (% disease control) (Septoria nodorum; [5]) [%] | Test D rating (% disease control) (Septoria tritici; [5]) [%] | Test B rating (% disease control) (Alternaria solani; [4]) | Test E1 rating (% disease control) [3, 4] | Test A rating (% disease control) (Botrytis cinerea; [6]) [%]
1 | COc1nn(C)c(-c2c(F)cccc2Cl)c1C(O)c1c(F)ccc(F)c1F (stereo not shown) [compound 145] | 26* % | 82* % | 73* % | 0* % | 35* % |  |  |  |  |  |  |  |  | 
2 | Cc1nn(C)c(-c2ccc(Cl)cc2Cl)c1C(=O)c1ccc(F)cc1F [compound 89] |  |  |  |  |  | 89 | 100 | 0 | 0 | 0 | 93 |  |  | 
3 | Cc1nn(C)c(-c2ccc(F)cc2Br)c1C(=O)c1ccc(F)cc1F [compound 73] |  | 0* % | 34* % | 0* % | 14* % |  |  |  |  |  |  | 60* % | 0* % | 
4 | Cn1nc(OC(F)F)c(C(O)c2ccc(F)cc2Cl)c1-c1c(F)cccc1F (stereo not shown) [compound 128] | 43* % | 85* % | 56* % | 0* % | 100* % |  |  |  |  |  |  |  |  | 
5 | Cn1nc(Br)c(C(=O)c2ccc(F)cc2F)c1-c1ccc(F)cc1Cl [compound 48] |  |  |  |  |  | 0 | 0 | 0 |  | 0 | 99 |  |  | 26
6 | Cc1nn(C)c(-c2c(F)cccc2Cl)c1C(O)c1ccc(Cl)cc1Cl (stereo not shown) [compound 90] |  | 100* % |  | 99* % | 100* % |  | 100 |  |  |  |  | 100* % | 74* % | 
7 | COc1nn(C)c(-c2c(F)cccc2Cl)c1C(O)c1c(F)ccc(F)c1Cl (stereo not shown) [compound 144] | 78* % | 100* % | 98* % | 0* % | 100* % |  |  |  |  |  |  |  |  | 
8 | Cc1nn(C)c(-c2ccc(F)cc2F)c1C(O)c1ccc(F)cc1Cl (stereo not shown) [compound 71] |  | 99* % | 99* % | 73* % | 100* % |  |  |  |  |  |  | 78* % | 88* % | 
9 | Cc1nn(C)c(-c2c(Cl)cccc2Cl)c1C(O)c1ccc(Cl)cc1 (stereo not shown) [compound 77] |  |  |  |  |  | 79 | 89 | 93 | 0 | 0 | 99 |  |  | 
10 | Cc1nn(C)c(-c2ccc(F)cc2Cl)c1Nc1ccc(F)cc1F [compound 49] | 100* % | 74* % | 87* % | 0* % | 96* % |  |  |  |  |  |  | 0* % |  | 
11 | Cc1nn(C)c(-c2ccc(F)cc2Br)c1C(O)c1ccc(F)cc1F (stereo not shown) [compound 76] |  |  |  |  |  | 100 | 100 | 99 | 99 | 60 | 100 |  |  | 
12 | Cc1nn(C)c(-c2c(F)cccc2Cl)c1C(O)c1ccc(F)cc1Br (stereo not shown) [compound 37] |  |  |  |  |  | 100 | 100 | 99 |  | 100 | 100 |  |  | 100
13 | Cc1nn(C)c(-c2ccccc2I)c1C(=O)c1ccc(F)cc1Br [compound 81] |  |  |  |  |  | 0 | 99 | 46 |  | 0 | 0 |  |  | 54
14 | COc1ccc(C(O)c2c(OC)nn(C)c2-c2c(F)cccc2Cl)c(F)c1 (stereo not shown) [compound 143] | 100* % | 99* % | 98* % | 0* % | 100* % |  |  |  |  |  |  |  |  | 
15 | Cc1nn(C)c(-c2c(F)cccc2Cl)c1C(F)c1c(F)cc(F)cc1F (stereo not shown) [Compound 75] |  | 100* % | 99* % | 87* % | 100* % |  |  |  |  |  |  | 100* % | 74* % | 
16 | COc1nn(C)c(-c2c(F)cccc2Cl)c1C(O)c1ccc(F)cc1C (stereo not shown) [compound 140] | 100* % | 99* % | 100* % | 99* % | 100* % |  |  |  |  |  |  |  |  | 
17 | Cc1nn(C)c(-c2ccccc2I)c1C(O)c1ccc(F)cc1Br (stereo not shown) [compound 88] |  |  |  |  |  | 68 | 89 | 0 | 0 | 0 | 99 |  |  | 
18 | COc1nn(C)c(-c2c(F)cc(F)cc2Cl)c1C(O)c1ccc(F)cc1Cl (stereo not shown) [compound 141] | 100* % | 99* % | 99* % | 97* % | 100* % |  |  |  |  |  |  |  |  | 
19 | COc1ccc(C(O)c2c(OC)nn(C)c2-c2c(F)cccc2Cl)c(Cl)c1 (stereo not shown) [compound 142] | 100* % | 100* % | 100* % | 60* % | 100* % |  |  |  |  |  |  |  |  | 
20 | Cc1nn(C)c(-c2c(Cl)cncc2Cl)c1C(=O)c1ccc(F)cc1Cl [compound 96] | 60* % | 0* % | 26* % | 0* % | 0* % |  |  |  |  |  |  | 0* % |  | 
21 | Cn1nc(Cl)c(C(O)c2ccc(F)cc2Cl)c1-c1c(F)cccc1Cl (stereo not shown) [compound 135] |  |  |  |  |  | 100 | 99 |  |  |  | 100 |  |  | 100
22 | Cc1nn(C)c(-c2ccc(F)cc2Cl)c1C(O)c1ccc(F)cc1I (stereo not shown) [compound 99] |  |  |  |  |  | 100 | 99 |  |  |  | 100 |  |  | 97
